Data as given in US12570988B2, “Aptamers that bind thiamine analogs and derivatives” (MeiraGTx Gene Regulation Limited, priority 2020, dated 2026).

Columns and labels:
[1] = tested on: riboswitch TPPm (E. coli thiM TPP aptamer); assay: Luciferase reporter with TPPm riboswitch in HEK 293 cells; assay type: cell-based, human; conditions: FIG. 1
Text: (§1) Riboswitch constructs: Aptamers were synthesized by Integrated DNA Technologies, Inc. and Golden Gate cloning strategy (New England Biolabs, NEB) was used to clone the synthesized aptamer sequences into intron-exon-intron cassette to replace the guanine aptamer in the G17 riboswitch cassette (see SEQ ID NO: 15 recited in WO 2016/126747, which is incorporated herein in its entirety) with a TPP aptamer from the Alishewanella tabrizica thiC gene (Microbiol Res. 2017 January; 195:71-80) or a TPP aptamer from the Escherichia coli thiM gene (Structure. 2006 September; 14(9):1459-68), generating riboswitch TPPz and TPPm, respectively.
(§2) Transfection: 3.5×10^4 human embryonic kidney (HEK) 293 cells were plated in a 96-well flat bottom plate the day before transfection. Plasmid DNA (500 ng) was added to a tube or a 96-well U-bottom plate. Separately, TransIT-293 reagent (Mirus; 1.4 μL) was added to 50 μL Optimem I media (Life Technologies) and allowed to sit for 5 minutes at room temperature (RT). Then, 50 μL of this diluted transfection reagent was added to the DNA, mixed, and incubated at RT for 20 min. Finally, 7 μL of this solution was added to a well of cells in the 96-well plate. Four hours after transfection, medium containing transfection solution was replaced by medium containing either TPP, fursultiamine, prosultiamine, bisbentiamine, beclotiamine hydrochloride, or sulbutiamine as aptamer inducers.
(§3) Firefly luciferase assay of cultured cells: Twenty-four hours after media change, plates were removed from the incubator, and equilibrated to RT for several minutes on a lab bench, then aspirated. Glo-lysis buffer (Promega, 100 μL, RT) was added, and the plates allowed to remain at RT for at least 5 minutes. Then, the well contents were mixed by 50 μL trituration, and 20 μL of each sample was mixed with 20 μL of bright-glo reagent (Promega) that had been diluted to 10% in glo-lysis buffer. 96 wells were spaced on an opaque white 384-well plate. Following a 5 min incubation at RT, luminescence was measured using a Tecan machine with 500 ms read time. The luciferase activity was expressed as mean arbitrary light units (ALU)±S.D., and fold induction was calculated as the quotient of the luciferase activity obtained from cells with TPP or analog treatment divided by the luciferase activity obtained from cells without TPP or analog treatment.

[2] = tested on: 14G4 riboswitch; conditions: HEK 293 cells; dose dependent; FIG. 2
Text: Riboswitch construction: TPP aptamer homologous sequences were obtained from Rfam 12.0 (https://rfam.xfam.org/) and synthesized (Twister Biotech).
To identify aptamers with increased gene regulation activity in response to thiamine analogs as compared to TPPz and TPPm, a putative TPP aptamer with homologous sequence was obtained from Rfam 12.0 (RNA family database RF00059, http://rfam.xfam.org/family/RF00059).

[3] = tested on: riboswitch comprising aptamer 6B4
Text: (§4) Riboswitch constructs: Alternative splicing riboswitches containing aptamers 3H4 or 15D10, respectively, were inserted at position 308 into the mouse erythropoietin cDNA sequence in construct Con8-Epo (SEQ ID NO:85), resulting in constructs Epo-3H4 (SEQ ID NO:86) and Epo-15D10 (SEQ ID NO:87). Expression of the erythropoietin gene was driven by a cytomegalovirus (CMV) promoter. The riboswitch cassette containing aptamer 6B4 was inserted at position 276 into the cDNA sequence encoding enhanced green fluorescent protein (EGFP) in vector pEGFP-C1 to generate the EGFP-6B4 construct (SEQ ID NO:88). The intron-exon-intron cassette without aptamer sequence was inserted into Con8-Epo to create construct Epo-Con1 (SEQ ID NO:89), serving as a control for constitutive target gene expression.

[4] = tested on: riboswitch comprising aptamer 3H4; conditions: 12.5 μM; AML12 cells; versus absence of fursultiamine
Text: as §4
(§5) Enzyme-linked immunosorbent assay (ELISA) for mouse erythropoietin: AML12 cells were transfected as described in Example 1 with TransIT-X2 transfection reagent (Mirus Bio). Four hours after transfection, AML12 cells were treated with or without fursultiamine at the indicated doses. The supernatants from the transfected cells were collected 24 hours after fursultiamine treatment and were subjected to ELISA for the detection of mEpo in the supernatant following the manufacturer's instruction (R&D).

[5] = tested on: riboswitch comprising aptamer 15D10; conditions: 12.5 μM, AML12 cells
Text: as §4, §5

[6] = tested on: riboswitch TPPz (A. tabrizica thiC TPP aptamer); assay: Luciferase reporter with TPPz riboswitch in HEK 293 cells; assay type: cell-based, human; conditions: FIG. 1
Text: as §1, §2, §3

[7] = tested on: riboswitch 15D10; assay: Luciferase reporter with 15D10 riboswitch (Luci-15D10) in HEK 293 cells; assay type: cell-based, human; conditions: for effect on luciferase expression from Luci-15D10: HEK 293 cells, FIG. 9A, 9C
In short: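 Cells transfected with riboswitch-luciferase plasmid; 4 h later medium replaced with TPP or thiamine analogs (fursultiamine, prosultiamine, bisbentiamine, beclotiamine, sulbutiamine) as inducers.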

[8] = tested on: riboswitch 15D10; assay: Luciferase reporter with 15D10 riboswitch (Luci-15D10) in AML12 cells; assay type: cell-based, mouse; conditions: for luciferase regulation in response to ligand, riboswitch 15D10: AML12 cells, FIG. 6B
[9] = tested on: riboswitch comprising aptamer 15A5; assay: Luciferase reporter with 15A5 riboswitch in AML12 cells; assay type: cell-based, mouse; conditions: FIG. 6B
[10] = tested on: riboswitch 15D10; assay: Luci-15D10 luciferase reporter in Hep G2 cells; assay type: cell-based, human; conditions: potency compared at 12.5 μM, FIG. 9F
[11] = tested on: riboswitch 15D10; assay: Luci-15D10 luciferase reporter in ARPE-19 cells; assay type: cell-based, human; conditions: FIG. 9E

Compound	effect on luciferase expression, riboswitch TPPm [1]	increase in luciferase expression, 14G4 riboswitch [2] [fold]	increase in EGFP expression [3] [fold]	induction of mEpo expression, Epo-3H4 [4] [fold]	level of mEpo from mEpo-15D10 relative to constitutive mEpo-Con1 construct [5]	induction of mEpo expression, Epo-15D10 ([5]; versus absence of fursultiamine)	effect on luciferase expression, riboswitch TPPz [6]	fold induction at 50 µM ([7]; Homo sapiens, HEK293, 24 h, read-out: Fold increase in riboswitch 15D10-regulated luciferase expression, HEK)	luciferase regulation in response to ligand, riboswitch 15D10 [8]	fold induction at 50 µM ([8]; Mus musculus, AML12, 24 h, read-out: Fold increase in riboswitch 15D10-regulated luciferase expression, AML)	luciferase regulation in response to ligand, riboswitch 15A5 [9]	activity in increasing riboswitch 15D10-regulated luciferase expression [10]	activity in increasing riboswitch 15D10-regulated luciferase expression [11]	effect on luciferase expression from Luci-15D10 [7]
CC(=C(CCO)SSCC1CCCO1)N(C=O)Cc1cnc(C)nc1N (stereo in doubt) [fursultiamine]	induce luciferase expression	100	14	~9	approximately 61.3%	about 40 fold	induce luciferase expression	446	robustly regulate luciferase expression	315	robustly regulate luciferase expression			
C/C(=C(\CCOP(=O)(O)O)SC(=O)c1ccccc1)N(C=O)Cc1cnc(C)nc1N [benfotiamine, reference compound]									robustly regulate luciferase expression		robustly regulate luciferase expression	no activity	no activity	no effect on luciferase expression
COc1ccc(C(=O)S/C(CCOP(=O)(O)O)=C(/C)N(C=O)Cc2cnc(C)nc2N)cc1 [Compound M32, (Z)—S-(2-(N-((4-Amino-2-methylpyrimidin-5-yl)methyl)formamido)-5-(phosphonooxy)pent-2-en-3-yl) 4-methoxybenzothioate]												no activity	no activity	no effect on luciferase expression
